From ChEMBL document CHEMBL4819091, “Identification of novel gankyrin binding scaffolds by high throughput virtual screening” (Bioorg Med Chem Lett, 2021)
The source made the active and inactive calls. The rule behind the calls is not given here.

Assays:
[1] = biological target: T1, 26S proteasome non-ATPase regulatory subunit 10 (Homo sapiens) (UniProt O75832); assay: Binding affinity to recombinant human His-tagged gankyrin expressed in Escherichia coli assessed as change in melting temperature at 300 uM by SYPRO orange dye based thermal shift assay
T1 sequence (whole entry): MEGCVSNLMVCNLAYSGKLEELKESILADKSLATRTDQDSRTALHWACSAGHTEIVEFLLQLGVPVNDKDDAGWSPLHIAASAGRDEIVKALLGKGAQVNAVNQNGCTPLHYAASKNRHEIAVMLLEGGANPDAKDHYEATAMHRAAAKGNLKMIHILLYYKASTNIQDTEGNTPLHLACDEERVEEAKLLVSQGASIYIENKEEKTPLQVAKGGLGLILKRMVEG

[2] = test system: A549; assay: Cytotoxicity against human A549 cells assessed as reduction in cell viability incubated for 72 hrs by MTT assay; type: functional, cell-based; details: A549, 72 h
[3] = test system: MDA-MB-231; assay: Cytotoxicity against human MDA-MB-231 cells assessed as reduction in cell viability incubated for 72 hrs by MTT assay; type: functional, cell-based; details: MDA-MB-231, 72 h
[4] = test system: HepG2; assay: Cytotoxicity against human HepG2 cells assessed as reduction in cell viability incubated for 72 hrs by MTT assay; type: functional, cell-based; details: HepG2, 72 h
[5] = test system: Hep 3B2; assay: Cytotoxicity against human Hep3B cells assessed as reduction in cell viability incubated for 72 hrs by MTT assay; type: functional, cell-based
[6] = Cytotoxicity against human HuH-6 cells assessed as reduction in cell viability incubated for 72 hrs by MTT assay; type: functional, cell-based; details: HuH-6, 72 h
[7] = biological target: T1, 26S proteasome non-ATPase regulatory subunit 10 (Homo sapiens); assay: Inhibition of gankyrin in human HuH-6 cells assessed as increase in p53 level at 25 to 100 uM by immunoblot assay; type: cell-based; details: dose 25-100 µM
[8] = biological target: T1, 26S proteasome non-ATPase regulatory subunit 10 (Homo sapiens); assay: Inhibition of gankyrin in human HuH-6 cells assessed as increase in phopho-Rb level at 25 to 100 uM by immunoblot assay; type: cell-based; details: dose 25-100 µM
[9] = biological target: T1, 26S proteasome non-ATPase regulatory subunit 10 (Homo sapiens); assay: Inhibition of gankyrin in human Hep3B cells assessed as increase in p53 level at 12.5 to 50 uM by immunoblot assay; type: cell-based; details: dose 12.5-50 µM
[10] = biological target: T1, 26S proteasome non-ATPase regulatory subunit 10 (Homo sapiens); assay: Inhibition of gankyrin in human Hep3B cells assessed as increase in CUGBP1 level at 12.5 to 50 uM by immunoblot assay; type: cell-based; details: dose 12.5-50 µM
[11] = test system: A549; assay: Potency index, ratio of IC50 of Cjoc42 to IC50 of compound for cytotoxicity against human A549 cells assessed as reduction in cell viability incubated for 72 hrs by MTT assay; type: functional
[12] = test system: MDA-MB-231; assay: Potency index, ratio of IC50 of Cjoc42 to IC50 of compound for cytotoxicity against human MDA-MB-231 cells assessed as reduction in cell viability incubated for 72 hrs by MTT assay; type: functional
[13] = test system: HepG2; assay: Potency index, ratio of IC50 of Cjoc42 to IC50 of compound for cytotoxicity against human HepG2 cells assessed as reduction in cell viability incubated for 72 hrs by MTT assay; type: functional
[14] = test system: Hep 3B2; assay: Potency index, ratio of IC50 of Cjoc42 to IC50 of compound for cytotoxicity against human Hep3B cells assessed as reduction in cell viability incubated for 72 hrs by MTT assay; type: functional
[15] = Potency index, ratio of IC50 of Cjoc42 to IC50 of compound for cytotoxicity against human HuH-6 cells assessed as reduction in cell viability incubated for 72 hrs by MTT assay; type: functional

SMILES	ΔTm [1] [°C]	inhibition [7]	inhibition [8]	inhibition [9]	inhibition [10]	IC50 [2] [µM]	IC50 [3] [µM]	IC50 [4] [µM]	IC50 [5] [µM]	IC50 [6] [µM]	Ratio IC50 [11]	Ratio IC50 [12]	Ratio IC50 [13]	Ratio IC50 [14]	Ratio IC50 [15]
COc1cccc2c1O[C@@](C)(CCC(=O)O)[C@@H]1CC[C@@H](CCCN)O[C@@H]21	0.17	–	–	–	–	–	–	–	–	–	–	–	–	–	–
COC(=O)c1ccc(-n2cc(CCCOS(=O)(=O)c3ccc(C)cc3)nn2)cc1	0.5	–	–	–	–	> 100	> 100	> 100	> 100	70.7	–	–	–	–	–
CS(=O)(=O)Cc1cccc(C(=O)NS(=O)(=O)c2ccc(S(C)(=O)=O)cc2)c1	0.29	–	–	–	–	–	–	–	–	–	–	–	–	–	–

The next lines start with results.

ΔTm [1] [°C]	inhibition [7]	inhibition [8]	inhibition [9]	inhibition [10]	SMILES	IC50 [2] [µM]	IC50 [3] [µM]	IC50 [4] [µM]	IC50 [5] [µM]	IC50 [6] [µM]	Ratio IC50 [11]	Ratio IC50 [12]	Ratio IC50 [13]	Ratio IC50 [14]	Ratio IC50 [15]
1.94	Active	Active	Active	Active	O=C(O)COc1ccc(CC(=O)O)cc1-c1cc(-c2ccc(Cl)cc2)n(CCc2ccccc2)n1	> 100	> 100	> 100	> 100	> 100	–	–	–	–	–
7.92	–	–	–	–	O=C(O)CN(Cc1ccc(Cl)cc1)C(=O)c1cnc(N2CCC[C@H]2COc2ccc(Cl)cc2)nc1CCc1ccccc1	45.6	88.1	52.7	25.5	44.3	2.2	1.1	1.9	3.9	1.6
